Among the data in US10364256B2 (GlaxoSmithKline Intellectual Property Development Limited, priority 2015, dated 2019) are EC50 and IC50 values, retold here.

Assay [1] deals with NQO1 specific enzyme activity in BEAS-2B cells (marker for NRF2 activation). Nature of the assay: BEAS-2B NQO1 MTT Assay. It is filed as cell-based. The note with it: Homo sapiens, compound incubated 48 hours, read-out: EC50 (NQO1 specific enzyme activity induction). Summed up:
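NQO1 specific activity induction is derived from the rate of MTT reduction (ΔOD/min, 570 nm, 30 min kinetic read) in crude lysates of BEAS-2B cells exposed to compound for 48 h. A 3-parameter fit gives EC50, reported as pEC50; part of each lysate goes to Cell Titer Glo.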

Assay [2] concerns the target T1, Keap1 Kelch domain (321-609) / TAMRA-labeled 16mer NRF2 peptide (ETGE motif) (Homo sapiens, UniProt Q14145).
T1 construct: the Kelch domain (321-609) of Keap1 is used
Nature of the assay: NRF2-Keap1 FP Assay (Keap1 Kelch fluorescence polarization). Type of assay: binding. The note with it: 20 nM Keap1 (321-609), 8 nM Tamra labeled peptide. In outline: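 Compound dilutions (3-fold) were incubated 1 hr at room temperature with 20 nM Keap1 Kelch (321-609) and 8 nM TAMRA-labeled ETGE 16mer peptide. Buffer was 50 mM Tris pH 8.0, 100 mM NaCl, 5 mM MgCl2, 1 mM DTT, 2 mM CHAPS, 0.005% BSA. Fluorescence polarization (mP) was normalized to controls and fitted with a four-parameter equation to give pIC50.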

T1 sequence (Q14145 321-609): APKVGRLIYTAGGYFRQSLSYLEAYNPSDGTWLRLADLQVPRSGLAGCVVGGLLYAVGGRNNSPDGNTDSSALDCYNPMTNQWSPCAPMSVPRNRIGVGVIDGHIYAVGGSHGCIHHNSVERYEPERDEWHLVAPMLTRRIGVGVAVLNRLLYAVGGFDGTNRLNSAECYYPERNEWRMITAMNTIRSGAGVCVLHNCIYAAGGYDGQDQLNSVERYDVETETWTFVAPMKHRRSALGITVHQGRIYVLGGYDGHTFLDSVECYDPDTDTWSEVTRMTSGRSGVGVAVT

The term EC50 denotes the concentration giving half of the maximal effect. The term IC50 denotes the concentration at which inhibition is half-maximal. Low values mean inhibition by little substance, high ones a need for much substance. On to `CC(Oc1cccc(-c2cccc(-n3ncc(C(=O)O)c3C3CC3c3cn(C)nn3)c2)c1)C1CCCC1` (stereo not drawn) [Example 228, 1-(3′-(1-Cyclopentylethoxy)-[1,1′-biphenyl]-3-yl)-5-(2-(1-methyl-1H-1,2,3-triazol-4-yl)cyclopropyl)-1H-pyrazole-4-carboxylic acid], for which the EC50 in assay [1] is 0.001 to 0.01 µM. For the same compound, the IC50 in assay [2] was 0.01 to 0.1 µM.

As to `Cn1cc(C2CC2c2c(C(=O)O)cnn2-c2cccc(-c3cccc(OC4CCCCC4)c3)c2)nn1` (stereo not drawn) [Example 229], the EC50 in assay [1] lay within 0.01 to 0.1 µM. This compound came in with an IC50 in assay [2] of 0.01 to 0.1 µM.

Regarding `CC(Oc1cccc(-c2cccc(-n3ncc(C(=O)O)c3C3CC3c3cn(C)nn3)c2)c1)C1CC1` (stereo not drawn) [Example 231, 1-(3′-(1-Cyclopropylethoxy)-[1,1′-biphenyl]-3-yl)-5-(2-(1-methyl-1H-1,2,3-triazol-4-yl)cyclopropyl)-1H-pyrazole-4-carboxylic acid], the EC50 in assay [1] fell in the range of 0.1 to 1 µM. This compound also registered an IC50 in assay [2] of 0.01 to 0.1 µM.

With `Cn1cc(C2CC2c2c(C(=O)O)cnn2-c2cccc(-c3cccc(OC4CCCN(C(=O)OC(C)(C)C)C4)c3)c2)nn1` (stereo not drawn) [Example 232, 1-(3′-((1-(tert-Butoxycarbonyl)piperidin-3-yl)oxy)-[1,1′-biphenyl]-3-yl)-5-(2-(1-methyl-1H-1,2,3-triazol-4-yl)cyclopropyl)-1H-pyrazole-4-carboxylic acid], the EC50 in assay [1] was in the range of 0.1 to 1 µM. Moreover, the IC50 in assay [2] lay in the range of 0.1 to 1 µM.

On to `Cn1cc(C2CC2c2c(C(=O)O)cnn2-c2cccc(-c3cccc(CCC4CCCCC4)c3)c2)nn1` (stereo not drawn) [Example 233, 1-(3′-(2-Cyclohexylethyl)-[1,1′-biphenyl]-3-yl)-5-(2-(1-methyl-1H-1,2,3-triazol-4-yl)cyclopropyl)-1H-pyrazole-4-carboxylic Acid], for which the EC50 in assay [1] fell in the range of 0.001 to 0.01 µM. The IC50 in assay [2] fell in the range of 0.1 to 1 µM.

In the case of `Cn1cc(C2CC2c2c(C(=O)O)cnn2-c2cccc(-c3cccc(OC4CCOCC4)c3F)c2)nn1` (stereo not drawn) [Example 234, 1-(2′-Fluoro-3′-((tetrahydro-2H-pyran-4-yl)oxy)-[1,1′-biphenyl]-3-yl)-5-(2-(1-methyl-1H-1,2,3-triazol-4-yl)cyclopropyl)-1H-pyrazole-4-carboxylic Acid], in assay [1], the EC50 fell in the range of 1 to 10 µM. Moreover, the IC50 in assay [2] fell in the range of 0.01 to 0.1 µM.

In the case of `CC(Oc1cccc(-c2cccc(-n3ncc(C(=O)O)c3C3CC3c3cn(C)nn3)c2)c1)c1ccccc1` (stereo not drawn) [Example 235, 5-(2-(1-Methyl-1H-1,2,3-triazol-4-yl)cyclopropyl)-1-(3′-(1-phenylethoxy)-[1,1′-biphenyl]-3-yl)-1H-pyrazole-4-carboxylic Acid], in assay [1], the EC50 was in the range of 0.1 to 1 µM. Moreover, the IC50 in assay [2] is 0.01 to 0.1 µM.

With `Cn1cc(C2CC2c2c(C(=O)O)cnn2-c2cccc(-c3cccc(C(=O)C4CCCCC4)c3)c2)nn1` (stereo not drawn) [Example 243, 1-(3′-(Cyclohexanecarbonyl)-[1,1′-biphenyl]-3-yl)-5-(2-(1-methyl-1H-1,2,3-triazol-4-yl)cyclopropyl)-1H-pyrazole-4-carboxylic Acid], the EC50 in assay [1] is 0.1 to 1 µM. In addition, in assay [2], the concentration for half-maximal inhibition (IC50) is 0.01 to 0.1 µM.

As to `COC(c1cccc(-c2cccc(-n3ncc(C(=O)O)c3C3CC3c3cn(C)nn3)c2)c1)C1CCCCC1` (stereo not drawn) [Example 244, 1-(3′-(Cyclohexyl(methoxy)methyl)-[1,1′-biphenyl]-3-yl)-5-(2-(1-methyl-1H-1,2,3-triazol-4-yl)cyclopropyl)-1H-pyrazole-4-carboxylic acid], the EC50 in assay [1] was 0.1 to 1 µM. In assay [2], this compound showed an IC50 of 0.01 to 0.1 µM.
